{"source": "patent US20080147019A1", "about": "“Antimicrobial component system containing metallic nanoparticles and chitosan and/or its derivatives” (Kimberly-Clark Worldwide, Inc., priority 2006, published 2008)", "origin": "cited, not measured here", "system": "bacteria (gram+ and gram−), as well as fungi (molds and yeasts)", "conditions": "very low doses, as low as about", "data": [{"smiles": "[Ag+]", "note": "[Ionic silver, Ionic silver (Ag+)]", "values": [{"measurement": "dose at which antimicrobial (oligodynamic)", "value": "0.001-0.05 ppm"}]}]}
